In patent US9023789B2, “Amylin analogs and pharmaceutical compositions thereof” (Novo Nordisk A/S, priority 2012, dated 2015):
Read-outs that look alike come from different tables or passages of the source. Numbered stars: 1 amine (or outer) side, 2 acyl side, 3 side chain; on linkers, the order of the positions; unused ones are H or OH. Bridge positions count the residues as written; N and C are the ends. Side chains are listed from the residue outwards. Peptide text beside a SMILES is read from it. * marks the point of attachment. C20 diacid = O=C(O)CCCCCCCCCCCCCCCCCCC(=O)*; γGlu = O=C(O)[C@H](CCC(=O)[*:2])N[*:1]

Legend:
[1] = target: T1, human calcitonin receptor (Homo sapiens, UniProt P30988); experiment: ASSAY (VII) binding to the human calcitonin receptor (SPA, 125I-Calcitonin);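 further: cell membranes (35 ng/µL) combined with SPA beads in 40 µL of pH 7.4 Hepes buffer, 384-well format, signal counted on a TopCounter instrument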
T1 construct: expressed in transfected cells
T1 sequence (P30988 25-474): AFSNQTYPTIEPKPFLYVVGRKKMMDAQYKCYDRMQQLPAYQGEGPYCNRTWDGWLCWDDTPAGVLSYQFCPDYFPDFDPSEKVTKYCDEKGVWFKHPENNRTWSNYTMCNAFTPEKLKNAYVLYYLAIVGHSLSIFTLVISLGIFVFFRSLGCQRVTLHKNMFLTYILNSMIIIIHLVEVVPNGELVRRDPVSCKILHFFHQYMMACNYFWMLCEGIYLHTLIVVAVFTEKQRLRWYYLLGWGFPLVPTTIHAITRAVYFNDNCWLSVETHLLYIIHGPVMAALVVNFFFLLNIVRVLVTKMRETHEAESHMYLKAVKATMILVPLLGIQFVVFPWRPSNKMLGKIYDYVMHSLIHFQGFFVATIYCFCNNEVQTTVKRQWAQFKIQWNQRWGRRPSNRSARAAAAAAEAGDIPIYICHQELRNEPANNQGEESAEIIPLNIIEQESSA

[2] = target: T2, human amylin receptor (membranes from Amylin 3(a)/CRE-luc cells) (Homo sapiens, UniProt O60896+P30988); experiment: ASSAY (V) binding to the human amylin receptor (SPA, 125I-rat amylin);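 further: competition binding of cell membranes (35 ng/µL) mixed with SPA beads in 384-well plates at 40 µL total volume, read by scintillation counting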
T2 construct: expressed in transfected cells
T2 sequence (P30988 25-474): T1 sequence (P30988 25-474)
T2 sequence (O60896 24-148 partner): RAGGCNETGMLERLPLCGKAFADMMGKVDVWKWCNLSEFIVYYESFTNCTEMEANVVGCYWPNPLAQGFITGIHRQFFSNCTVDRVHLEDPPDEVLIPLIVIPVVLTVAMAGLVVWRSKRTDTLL
Protocol: The binding assay was performed using scintillation proximity assay (SPA) beads (RPNQ0001) from PerkinElmer and cell membranes from the Amylin 3(a)/CRE-luc cells (as described in Assay (II)) were used. Membranes were prepared in the following way; the cells were rinsed with PBS and incubated with Versene for approximately 5 min before harvesting. The cells were flushed with PBS and the cell-suspension was centrifuged for 5 min at 1000 rpm. […] The resulting pellet was resuspended in buffer 2 and protein concentration was measured (BCA protein Assay, Pierce). The homogenate was kept cold during the whole procedure. The membranes were kept at −80° C. until use. The assay was performed in a 384 well Optiplate (PerkinElmer) in a total volume of 40 ul. Membranes were mixed with SPA beads. Final concentration of membranes 35 ng/μL final and SPA beads was 0.05 mg/well. Test-compounds were dissolved in DMSO and further diluted in assay buffer (50 mM Hepes, pH 7.4, 1 mM CaCl2, 5 mM MgCl2, 0.1% OA and 0.02% Tween20). […] Samples were analyzed on TopCounter™ (Packard). The IC50 was calculated using (one site binding competition analysis) GraphPad Prism5 as a measure of receptor affinity.

rat calcitonin receptor = target: T3, rat calcitonin receptor (Rattus norvegicus, UniProt P32214); experiment: ASSAY (VIII) binding to the rat calcitonin receptor; conditions: Table 7, read-out: rCTR bind IC50
T3 construct: expressed in transfected cells; host or cells: BHK tk'ts 13 (transient, FuGENE 6), membranes
T3 sequence (P32214 25-479 isoform P32214-2 limits assumed): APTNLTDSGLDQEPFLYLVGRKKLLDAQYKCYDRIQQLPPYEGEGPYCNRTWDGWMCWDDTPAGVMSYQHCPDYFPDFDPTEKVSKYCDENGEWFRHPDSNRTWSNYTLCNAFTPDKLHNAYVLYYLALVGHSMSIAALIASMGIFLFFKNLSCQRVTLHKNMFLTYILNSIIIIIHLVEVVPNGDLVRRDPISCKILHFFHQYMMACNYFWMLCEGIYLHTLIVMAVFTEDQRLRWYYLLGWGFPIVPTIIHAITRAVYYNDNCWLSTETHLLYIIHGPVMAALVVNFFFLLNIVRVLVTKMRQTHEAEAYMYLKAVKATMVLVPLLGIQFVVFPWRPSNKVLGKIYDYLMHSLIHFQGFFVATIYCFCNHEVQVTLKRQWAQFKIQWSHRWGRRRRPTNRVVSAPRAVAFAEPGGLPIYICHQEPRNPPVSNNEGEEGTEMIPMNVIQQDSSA
Method in brief: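 Receptor source: membranes from transiently transfected BHK tk′ts 13 cells expressing rat calcitonin receptor, collected roughly 48 hours after transfection.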

[3] = target: T4, human amylin 3(a) receptor (human calcitonin receptor + RAMP-3) in BHK570 cells (Homo sapiens, UniProt O60896+P30988); experiment: ASSAY (II)a functional assay, human amylin receptor (CRE luciferase); format: cell-based
T4 construct: expressed in transfected cells
Method in brief: (§1)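 Functional agonism was measured by CRE-luciferase reporter luminescence in BHK cells bearing calcitonin receptor, or calcitonin receptor plus RAMP-3 as the amylin 3(a) receptor. Stimulation lasted 3 hours at 37° C.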

[4] = target: T5, human calcitonin (a) receptor in BHK570 cells (Homo sapiens, UniProt P30988); experiment: ASSAY (II)a functional assay, human calcitonin receptor (CRE luciferase); format: cell-based
T5 construct: expressed in transfected cells
T5 sequence (P30988 25-474): T1 sequence (P30988 25-474)
Method in brief: as §1

[5] = target: T6, rat amylin receptor (rat calcitonin receptor + rat RAMP 3) (Rattus norvegicus, UniProt P32214+Q9JJ73); experiment: ASSAY (VI) binding to the rat amylin receptor
T6 construct: expressed in transfected cells; host or cells: BHK tk'ts 13 (transient, FuGENE 6), membranes
T6 sequence (P32214 25-479 isoform P32214-2 limits assumed): T3 sequence (P32214 25-479 isoform P32214-2 limits assumed)
T6 sequence (Q9JJ73 23-147 partner): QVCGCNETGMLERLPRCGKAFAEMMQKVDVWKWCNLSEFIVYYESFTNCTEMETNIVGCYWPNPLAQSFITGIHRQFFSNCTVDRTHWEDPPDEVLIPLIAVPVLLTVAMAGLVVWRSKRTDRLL
Method in brief: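 The cell-membrane assay assessed binding at the rat amylin receptor. BHK tk′ts 13 cells were transfected transiently with rat calcitonin receptor, with FuGENE® 6 (Roche) as the transfection reagent, used per the manufacturer's recommendations. Approximately 48 hours after transfection the cells were harvested, and membranes were prepared for measuring binding.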

[6] = Table 5, selectivity, hCTR bind IC50 / hAmylin-R bind IC50
[7] = Table 5a, selectivity, hCTR bind IC50 / hAmylin-R bind IC50
[8] = Table 7, human binding selectivity, included for comparison
[9] = Table 7a (preferred compounds), human binding selectivity, included for comparison
[10] = ratio of human calcitonin receptor binding IC50 to human amylin receptor binding IC50
[11] = hCTR funct. EC50 divided by hAmylin-R funct. EC50
[12] = hCTR funct. EC50 over hAmylin-R funct. EC50
[13] = human functional selectivity: hCTR funct. EC50 / hAmylin-R funct. EC50
[14] = Table 7, rat binding selectivity, rCTR IC50 / rAmylin-R IC50
[15] = Table 7a (preferred compounds), rat binding selectivity, rCTR IC50 / rAmylin-R IC50
[16] = ratio of rCTR bind IC50 to rAmylin-R bind IC50
[17] = Table 4, read-out: hAmylin-R bind IC50
[18] = human amylin receptor functional potency, assay (II), read-out: hAmylin-R funct. EC50
[19] = Table 7, binding to rat amylin receptor, read-out: rAmylin-R bind IC50

| Structure (SMILES) | Ratio hCT/hAmylin binding [2, 6] | Ratio hCT/hAmylin binding [2, 7] | Ratio hCT/hAmylin binding [2, 8] | Ratio hCT/hAmylin binding [2, 9] | Ratio hCT/hAmylin binding [2, 10] | IC50 (rat calcitonin receptor) [nM] | Ratio hCT/hAmylin funct. [3, 11] | Ratio hCT/hAmylin funct. [3, 12] | Ratio hCT/hAmylin funct. [3, 13] | Ratio rCT/rAmylin binding [5, 14] | Ratio rCT/rAmylin binding [5, 15] | Ratio rCT/rAmylin binding [5, 16] | IC50 ([1]; read-out: hCTR bind IC50) [nM] | IC50 [2, 17] [nM] | EC50 [3, 18] [nM] | EC50 ([4]; read-out: hCTR funct. EC50) [nM] | IC50 [5, 19] [nM] | further results |
| --- | --- | --- | --- | --- | --- | --- | --- | --- | --- | --- | --- | --- | --- | --- | --- | --- | --- | --- |
| CC[C@H](C)[C@H](NC(=O)[C@H](C)NC(=O)CNC(=O)[C@H](Cc1ccccc1)NC(=O)[C@H](CC(N)=O)NC(=O)[C@@H]1CCCN1C(=O)[C@H](CO)NC(=O)[C@H](CO)NC(=O)[C@H](Cc1c[nH]cn1)NC(=O)[C@H](CCCNC(=N)N)NC(=O)[C@H](CC(C)C)NC(=O)[C@H](Cc1ccccc1)NC(=O)[C@H](C)NC(=O)[C@H](C)NC(=O)[C@H](CC(C)C)NC(=O)[C@H](CCCNC(=N)N)NC(=O)[C@H](CCC(N)=O)NC(=O)[C@@H](NC(=O)[C@H](C)NC(=O)[C@@H]1CSSC[C@H](NC(=O)[C@H](CCCNC(=N)N)NC(=O)CNC(=O)CC[C@H](NC(=O)CCCCCCCCCCCCCCCCCCC(=O)O)C(=O)O)C(=O)N[C@@H](CC(N)=O)C(=O)N[C@@H]([C@@H](C)O)C(=O)N[C@@H](C)C(=O)N[C@@H]([C@@H](C)O)C(=O)N1)[C@@H](C)O)C(=O)N1CCC[C@H]1C(=O)N[C@@H](CO)C(=O)N[C@@H](CO)C(=O)N[C@H](C(=O)N[C@@H](CC(N)=O)C(=O)N[C@H](C(=O)NCC(=O)N1CCC[C@H]1C(=O)N[C@@H](CC(N)=O)C(=O)N[C@H](C(=O)N[C@@H](Cc1ccc(O)cc1)C(N)=O)[C@@H](C)O)C(C)C)[C@@H](C)O [Example 103] ({C20 diacid-γGlu}-GRCNTATCATQRLAAFLRHSSPNFGAIPSSTNVGPNTY-NH2; disulfide 3-8) | 26.5 | 26.5 | 26.5 | 26.5 | 26.5 | 56.3 | 2.1 | 2.1 | 2.1 | 129.1 | 129.1 | 129.1 | – | – | – | – | – | IC50 [1]: 3 nM; IC50 [2]: 0.114 nM; Ratio hCT/hAmylin binding ([2]; Table 5b, selectivity, hCTR bind IC50 / hAmylin-R bind IC50): 26.5; Ratio hCT/hAmylin binding ([2]; Table 5c, selectivity, hCTR bind IC50 / hAmylin-R bind IC50): 26.5; EC50 [3]: 0.07 nM; Ratio hCT/hAmylin funct. ([3]; hCTR funct. EC50 / hAmylin-R funct. EC50): 2.1; EC50 [4]: 0.148 nM; IC50 [5]: 0.436 nM |
| CC[C@H](C)[C@H](NC(=O)[C@H](C)NC(=O)CNC(=O)[C@H](Cc1ccccc1)NC(=O)[C@H](CC(N)=O)NC(=O)[C@@H]1CCCN1C(=O)[C@H](CO)NC(=O)[C@H](CO)NC(=O)[C@H](Cc1c[nH]cn1)NC(=O)[C@H](CCCNC(=N)N)NC(=O)[C@H](CC(C)C)NC(=O)[C@H](Cc1ccccc1)NC(=O)[C@H](CCC(=O)O)NC(=O)[C@H](C)NC(=O)[C@H](CC(C)C)NC(=O)[C@H](CCCNC(=N)N)NC(=O)[C@H](CCC(N)=O)NC(=O)[C@@H](NC(=O)[C@H](C)NC(=O)[C@@H]1CSSC[C@H](NC(=O)[C@@H](N)CCCCNC(=O)CC[C@H](NC(=O)CC[C@H](NC(=O)CCCCCCCCCCCCCCCCCCC(=O)O)C(=O)O)C(=O)O)C(=O)N[C@@H](CC(N)=O)C(=O)N[C@@H]([C@@H](C)O)C(=O)N[C@@H](C)C(=O)N[C@@H]([C@@H](C)O)C(=O)N1)[C@@H](C)O)C(=O)N1CCC[C@H]1C(=O)N[C@@H](CO)C(=O)N[C@@H](CO)C(=O)N[C@H](C(=O)N[C@@H](CC(N)=O)C(=O)N[C@H](C(=O)NCC(=O)N[C@@H](CCCNC(=N)N)C(=O)N[C@@H](CCC(=O)O)C(=O)N[C@H](C(=O)N[C@@H](Cc1ccc(O)cc1)C(N)=O)[C@@H](C)O)C(C)C)[C@@H](C)O [Example 105] (H-K([γGlu-γGlu-C20 diacid])CNTATCATQRLAEFLRHSSPNFGAIPSSTNVGRETY-NH2; disulfide 2-7; N-terminus assumed) | 14.7 | 14.7 | 14.7 | 14.7 | 14.7 | 452 | 10.6 | 10.6 | 10.6 | 158.2 | 158.2 | 158.2 | 14.1 | 0.957 | 0.703 | 7.43 | 2.86 | – |
| CC[C@H](C)[C@H](NC(=O)[C@H](C)NC(=O)CNC(=O)[C@H](Cc1ccccc1)NC(=O)[C@H](CC(N)=O)NC(=O)[C@@H]1CCCN1C(=O)[C@H](CO)NC(=O)[C@H](CO)NC(=O)[C@H](Cc1c[nH]cn1)NC(=O)[C@H](CCCNC(=N)N)NC(=O)[C@H](CC(C)C)NC(=O)[C@H](Cc1ccccc1)NC(=O)[C@H](CCC(=O)O)NC(=O)[C@H](C)NC(=O)[C@H](CC(C)C)NC(=O)[C@H](CCCNC(=N)N)NC(=O)[C@H](CCC(N)=O)NC(=O)[C@@H](NC(=O)[C@H](C)NC(=O)[C@@H]1CSSC[C@H](NC(=O)[C@@H](N)CCCCNC(=O)CC[C@H](NC(=O)CCCCCCCCCCCCCCCCCCC(=O)O)C(=O)O)C(=O)N[C@@H](CC(N)=O)C(=O)N[C@@H]([C@@H](C)O)C(=O)N[C@@H](C)C(=O)N[C@@H]([C@@H](C)O)C(=O)N1)[C@@H](C)O)C(=O)N1CCC[C@H]1C(=O)N[C@@H](CO)C(=O)N[C@@H](CO)C(=O)N[C@H](C(=O)N[C@@H](CC(N)=O)C(=O)N[C@H](C(=O)NCC(=O)N[C@@H](Cc1c[nH]cn1)C(=O)N[C@@H](CCC(=O)O)C(=O)N[C@H](C(=O)N[C@@H](Cc1ccc(O)cc1)C(N)=O)[C@@H](C)O)C(C)C)[C@@H](C)O [Example 107] (H-K([γGlu-C20 diacid])CNTATCATQRLAEFLRHSSPNFGAIPSSTNVGHETY-NH2; disulfide 2-7 (inferred)) | 11.1 | 11.1 | 11.1 | 11.1 | 11.1 | 33.1 | 6.3 | 6.3 | 6.3 | 34.6 | 34.6 | 34.6 | 4.28 | 0.387 | 0.405 | 2.54 | 0.958 | – |
